From patent publication US4727080A, “1-substituted derivatives of 6-fluoro-7-(pyrrol-1-yl)-1,4-dihydro-4-oxoquinoline-3-carboxylic acid, their preparation and their application as drugs” (Provesan S.A., priority 1984, dated 1988) come the findings set out here.

In brackets after ≈: the same amount, converted by molar mass.

In data set [1] the test system is Bacillus subtilis ATCC 6633. The data set can be described thus: "In vitro" MIC, Bacillus subtilis. To be noted: ATCC6633; Bacillus subtilis ATCC 6633; dextrose agar, 37° C., 20 hours; read-out: "In vitro" MIC. It counts as cell-based. How it is done:
(§1) Antimicrobial pharmacological activity (G. L. Daquet and Y. A. Chabbect, Techniques en bacteriologie (Techniques in bacteriology), vol. 3, Flammarion Medecine-Sciences, Paris, 1972, and W. B. Hugo and A. D. Rusell, Pharmaceutical Microbiology, Blackwell Scientific Publications, London (1977).
Bacillus subtilis ATCC 6633
(§2) A streak culture of each of the microorganisms is formed in tubes of antibiotics agar no. 1 and incubated for 20 hours at 37° C. A culture loop is then taken and a culture is formed in a tryptone-soya broth and incubated for 20 hours at 37° C. The resulting culture is diluted to 1/4 with Ringer's physiological solution to give a standardized suspension of 10^5 ufc/ml for each organism.
(§3) Starting from a solution of 1000 μg/ml in 0.1N NaOH, each product is diluted successively in dextrose agar (melted beforehand and kept at 50° C.) to give the following concentrations: 64-32-16-8-4-2-1-0.5-0.25-0.125 μg of derivative/ml of medium.
(§4) After this, each concentration of each product is divided up into Petri dishes of 10 cm diameter at a rate of 10 ml of medium per dish and using as many dishes as there are microorganisms to be tested.
(§5) Once the medium has cooled, the dishes are treated with the inoculations at a rate of 0.4 ml of inoculation per dish. They are spread out with a Drigalski loop and the supernatant is collected. The inoculated dishes are incubated at 37° C. for 20 hours.

The subject of data set [2] is Streptococcus faecalis ATCC 10541. The data set can be described thus: "In vitro" MIC, Streptococcus faecalis. It counts as cell-based. Conditions: Enterococcus faecalis, ATCC10541; Streptococcus faecalis ATCC 10541; dextrose agar, 37° C., 20 hours; read-out: "In vitro" MIC. How it is done: as §1
Streptococcus faecalis ATCC 10541
as §2, §3, §4, §5

For data set [3], the system named is Enterobacter cloacae CHSP-20. Put plainly: "In vitro" MIC, Enterobacter cloacae. It counts as cell-based. To be noted: CHSP20; Enterobacter cloacae CHSP-20; dextrose agar, 37° C., 20 hours; read-out: "In vitro" MIC. How it is done: as §1
Enterobacter cloacae CHSP-20
as §2, §3, §4, §5

Data set [4] relates to Escherichia coli ATCC 10536. Put plainly: "In vitro" MIC, Escherichia coli ATCC 10536. It is filed as cell-based. Conditions: ATCC10536; Escherichia coli ATCC 10536; dextrose agar, 37° C., 20 hours; read-out: "In vitro" MIC. How it is done: as §1
Escherichia coli ATCC 10536
as §2, §3, §4, §5

The subject of data set [5] is Escherichia coli R-1513. The data set can be described thus: "In vitro" MIC, Escherichia coli R-1513. It is filed as cell-based. To be noted: R1513; Escherichia coli R-1513; dextrose agar, 37° C., 20 hours; read-out: "In vitro" MIC. How it is done: as §1, §2, §3, §4, §5
Data set [6] deals with Proteus mirabilis ATCC 4675. The data set can be described thus: "In vitro" MIC, Proteus mirabilis. It counts as cell-based. Conditions: ATCC4675; Proteus mirabilis ATCC 4675; dextrose agar, 37° C., 20 hours; read-out: "In vitro" MIC. How it is done:
as §1
Proteus mirabilis ATCC 4675
as §2, §3, §4, §5

Data set [7] has as its system Shigella flexnerii. The data set can be described thus: "In vitro" MIC, Shigella flexnerii. It is filed as cell-based. Conditions: 20 h, read-out: "In vitro" MIC. How it is done:
as §1, §2, §3, §4, §5

Data set [8] relates to Gram-positive cocci. Put plainly: "In vitro" antimicrobial activity compared with nalidixic acid, Gram-positive cocci. It is filed as cell-based. How it is done: as §1, §2, §3, §4, §5
For data set [9], the system named is Proteus morganii CHSP-16. Put plainly: "In vitro" MIC, Proteus morganii. Conditions: Morganella morganii, CHSP16; Proteus morganii CHSP-16; dextrose agar, 37° C., 20 hours; read-out: "In vitro" MIC. It is filed as cell-based. How it is done:
as §1, §2, §3, §4, §5

Data set [10] relates to Enterobacter aerogenes ATCC 15038. The data set can be described thus: "In vitro" MIC, Enterobacter aerogenes. It counts as cell-based. Conditions: Klebsiella aerogenes, ATCC15038; Enterobacter aerogenes ATCC 15038; dextrose agar, 37° C., 20 hours; read-out: "In vitro" MIC. How it is done: as §1
Enterobacter aerogenes ATCC 15038
as §2, §3, §4, §5

For data set [11], the system named is Pseudomonas aeruginosa ADSA 47. The data set can be described thus: "In vitro" MIC, Pseudomonas aeruginosa ADSA 47. To be noted: ADSA47; Pseudomonas aeruginosa ADSA 47; dextrose agar, 37° C., 20 hours; read-out: "In vitro" MIC. It counts as cell-based. How it is done:
as §1
Pseudomonas aeruginosa ADSA 47
as §2, §3, §4, §5

Data set [12] relates to Sarcina lutea ATCC 9341. The data set can be described thus: "In vitro" MIC, Sarcina lutea. It is filed as cell-based. Conditions: Micrococcus luteus, ATCC9341; Sarcina lutea ATCC 9341; dextrose agar, 37° C., 20 hours; read-out: "In vitro" MIC. How it is done: as §1, §2, §3, §4, §5
Data set [13] relates to Enterobacteriaceae (Pseudomonas aeruginosa). Put plainly: "In vitro" antimicrobial activity compared with nalidixic acid, Enterobacteriaceae (Pseudomonas aeruginosa). It is filed as cell-based. How it is done:
as §1, §2, §3, §4, §5

The test system of data set [14] is Micrococcus flavus ATCC 10240. Put plainly: "In vitro" MIC, Micrococcus flavus. It is filed as cell-based. To be noted: ATCC10240; Micrococcus flavus ATCC 10240; dextrose agar, 37° C., 20 hours; read-out: "In vitro" MIC. How it is done:
as §1
Micrococcus flavus ATTC 10240
as §2, §3, §4, §5

Data set [15] deals with Salmonella typhimurium AMES 98. The data set can be described thus: "In vitro" MIC, Salmonella typhimurium AMES 98. It is filed as cell-based. To be noted: Salmonella enterica; Salmonella typhimurium AMES 98; dextrose agar, 37° C., 20 hours; read-out: "In vitro" MIC. How it is done: as §1
Salmonella typhimurium AMES 98
as §2, §3, §4, §5

The test system of data set [16] is Klebsiella pneumoniae ATCC 10031. The data set can be described thus: "In vitro" MIC, Klebsiella pneumoniae. It is filed as cell-based. To be noted: ATCC10031; Klebsiella pneumoniae ATCC 10031; dextrose agar, 37° C., 20 hours; read-out: "In vitro" MIC. How it is done: as §1
Klebsiella pneumoniae ATCC 10031
as §2, §3, §4, §5

Data set [17] deals with Pseudomonas aeruginosa 25115. Put plainly: "In vitro" MIC, Pseudomonas aeruginosa 25115. To be noted: Pseudomonas aeruginosa 25115; dextrose agar, 37° C., 20 hours; read-out: "In vitro" MIC. It is filed as cell-based. How it is done: as §1
Pseudomonas aeruginosa 25115
as §2, §3, §4, §5

Data set [18] deals with Salmonella typhimurium AMES 100. The data set can be described thus: "In vitro" MIC, Salmonella typhimurium AMES 100. It counts as cell-based. To be noted: Salmonella enterica; Salmonella typhimurium AMES 100; dextrose agar, 37° C., 20 hours; read-out: "In vitro" MIC. How it is done: as §1
Salmonella typhimurium AMES 100
as §2, §3, §4, §5

Data set [19] can be described thus: Acute toxicity to mice. Conditions: mouse, in vivo, ip, suspension in 5% gum arabic, mortality over 7 days. How it is done: The experimental animals used to determine this toxicity were albino mice of the C.F.L.P. strain and of both sexes, weighing between 19 and 25 grams. After an 18-hour fasting period with water "ad libitum", the derivatives forming the subject of the present invention are administered intraperitoneally as a suspension in 5% gum arabic. The volume of suspension administered was 0.4 ml/20 grams (20 ml/kg) in all cases, the concentration of the suspension being changed according to the dose administered.
One hour after administration of the derivatives, the animals are given a standard Panlab rat-mouse food. The mortality was observed over a period of 7 days. Differences in mortality between the sexes were not observed with any of the products.

The subject of data set [20] is Staphylococcus aureus ATCC 25178. The data set can be described thus: "In vitro" MIC, Staphylococcus aureus ATCC 25178. Conditions: ATCC25178; Staphylococcus aureus ATCC 25178; dextrose agar, 37° C., 20 hours; read-out: "In vitro" MIC. It is filed as cell-based. How it is done:
as §1
Staphylococcus aureus ATCC 25178
as §2, §3, §4, §5

Data set [21] relates to Staphylococcus aureus ATCC 5488/23. The data set can be described thus: "In vitro" MIC, Staphylococcus aureus ATCC 5488/23. To be noted: ATCC5488; Staphylococcus aureus ATCC 5488/23; dextrose agar, 37° C., 20 hours; read-out: "In vitro" MIC. It counts as cell-based. How it is done:
as §1
Staphylococcus aureus ATCC 5488/23
as §2, §3, §4, §5

Data set [22] concerns Serratia marcescens ATTC 13880. Put plainly: "In vitro" MIC, Serratia marcescens. It counts as cell-based. Conditions: ATTC13880; Serratia marcescens ATTC 13880; dextrose agar, 37° C., 20 hours; read-out: "In vitro" MIC. How it is done: as §1
Serratia marcescens ATTC 13880
as §2, §3, §4, §5

Data set [23] concerns Citrobacter freundii ATCC 11606. Put plainly: "In vitro" MIC, Citrobacter freundii. It counts as cell-based. Conditions: ATCC11606; Citrobacter freundii ATCC 11606; dextrose agar, 37° C., 20 hours; read-out: "In vitro" MIC. How it is done:
as §1
Citrobacter freundii ATCC 11606
as §2, §3, §4, §5

Usually MIC stands for the lowest concentration found to suppress growth. As usually defined, the LD50 is the dose at which mortality reaches 50%. A lower LD50 goes with a more toxic substance. As for `O=C(O)c1cn(CCO)c2cc(-n3cccc3)c(F)cc2c1=O` [Example 2, 6-fluoro-7-(pyrrol-1-yl)-1-(2-hydroxyethyl)-4-oxo-1,4-dihydroquinoline-3-carboxylic acid], the minimum inhibitory concentration (MIC) in data set [1] was at most 0.062 µg/mL; in [2] it was 1 µg/mL (≈ 3.16 µM); in data set [3] it was 1 µg/mL (≈ 3.16 µM); in [4], 0.125 µg/mL (≈ 0.395 µM); in data set [5] it was 1 µg/mL (≈ 3.16 µM); in data set [6] it was 1 µg/mL (≈ 3.16 µM). The minimum inhibitory concentration (MIC) in data set [7] is 1 µg/mL (≈ 3.16 µM); in data set [9], 1 µg/mL (≈ 3.16 µM); in data set [10] it was 2 µg/mL (≈ 6.32 µM); in data set [11], at least 32 µg/mL; in data set [12], 16 µg/mL (≈ 50.6 µM); in [14], 16 µg/mL (≈ 50.6 µM). Further, the MIC in data set [15] stood at 0.25 µg/mL (≈ 0.79 µM); in data set [16], 0.062 µg/mL (≈ 0.196 µM); in [17] it was 16 µg/mL (≈ 50.6 µM); in [18], 0.25 µg/mL (≈ 0.79 µM); in [20] it was 0.5 µg/mL (≈ 1.58 µM); in data set [21], 0.5 µg/mL (≈ 1.58 µM). Besides, the MIC in data set [22] and in data set [23] was 1 µg/mL (≈ 3.16 µM) throughout. For the same compound, the “"in vitro" activity compared with nalidixic acid” value in data set [8] and in data set [13] was “greater "in vitro" activity than nalidixic acid” in each case. Moreover, in data set [19], the median lethal dose (LD50) at 168 h is above 1600 mg/kg.
